Experiments:
zHDAC6-CD2 wt = zHDAC6-CD2 wt (Danio rerio (Zebrafish) (Brachydanio rerio), UniProt F8W4B7); experiment: Isolation of long-lived/tight complex (spin column chromatography with LC-HRMS); format: binding; conditions: zHDAC6-CD2 wt 1 μM, compound 5 μM, 6 hours, Bio-Spin P-6
Protocol: Rapid chromatography on spin columns coupled to LC-HRMS was used to attempt the isolation of long-lived/tight complexes between HDAC6 and examples 1 and 1-A. zHDAC6-CD2 wt (1 μM) was incubated with 1 (5 μM) or 1-A (also 5 μM) as described before for 6 hours. An aliquot (60 μL) was loaded on a Bio-Spin P-6 Gel Column (Bio-Rad) that had been equilibrated with assay buffer in order to separate the HDAC6-inhibitors complexes from free compounds. After centrifugation to elute the initial fraction containing most of the enzyme, ten 200 μL aliquots were applied and eluted by centrifugation to collect the low molecular weight (free) compounds. Aliquots of the fractions were subjected to LC-HRMS analysis (as described above) for identification and quantitation of 1 and its derivatives.

HDAC6 = experiment: Kinetic of prodrug disappearing when incubated with HDAC6 (LC-HRMS); format: biochemical; conditions: HDAC6 1 μM, 5 μM compound, 25° C.; for half-life at 5 µM: HDAC6 enzyme in assay buffer, read-out: T1/2 of prodrug disappearing
Protocol: The LC-HRMS analysis was carried out using a Vanquish Flex UHPLC (Thermo Fisher Scientific) and a high-resolution mass spectrometer Orbitrap QExactive Focus (Thermo Fisher Scientific), equipped with a Heated Electrospray Ionization, operated in positive mode. A Full Scan analysis was set in the m/z range 50-500 amu. A XSelect HSS T3 50×2.1 mm, 2.5 μm chromatographic column (Waters) was used. Mobile phase A consisted of 0.1% formic acid in water and mobile phase B in 0.1% formic acid in acetonitrile. The flow rate was set to 0.5 mL/min, with a gradient program from 3 to 20% B in 3 minutes.

Sequence of zHDAC6-CD2 wt (F8W4B7 entry or part of it del 1-439/del 799-1081 limits assumed): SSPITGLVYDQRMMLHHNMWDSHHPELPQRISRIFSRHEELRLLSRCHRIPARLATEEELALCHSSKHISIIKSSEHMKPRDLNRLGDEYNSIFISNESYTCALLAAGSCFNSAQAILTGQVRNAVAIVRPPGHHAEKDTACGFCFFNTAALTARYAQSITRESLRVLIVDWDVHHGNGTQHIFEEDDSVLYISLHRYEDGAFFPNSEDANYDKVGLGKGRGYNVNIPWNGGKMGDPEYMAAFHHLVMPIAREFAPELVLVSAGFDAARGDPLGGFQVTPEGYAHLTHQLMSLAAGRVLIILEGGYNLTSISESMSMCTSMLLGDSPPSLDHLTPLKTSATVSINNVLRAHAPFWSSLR

SMILES	co-elution with the enzyme (fraction 1) (zHDAC6-CD2 wt)	percentage of compound concentration (prodrug remaining) (HDAC6; time 0 min) [%]	percentage of compound concentration (prodrug remaining) (HDAC6; time 30 min) [%]	percentage of compound concentration (prodrug remaining) (HDAC6; time 60 min) [%]	percentage of compound concentration (prodrug remaining) (HDAC6; time 120 min) [%]	percentage of compound concentration (prodrug remaining) (HDAC6; time 240 min) [%]	percentage of compound concentration (prodrug remaining) (HDAC6; time 360 min) [%]	percentage of compound concentration (prodrug remaining) (HDAC6; time 480 min) [%]	half-life at 5 µM (HDAC6) [h]
FC(F)c1nnc(-c2ccc(Cn3cc(-c4ccc(NC5=NCCN5)cc4)nn3)cc2)o1 [Compound 1-A]	behaves as a prodrug								
Nc1nc2ccc(-c3cn(Cc4ccc(-c5nnc(C(F)F)o5)cc4F)nn3)cc2s1 [Compound 2-A]		100.00	73.1	53.6	31.1	11.1	3.9	1.3	1.29
Nc1nc2ccc(-c3cn(Cc4ccc(-c5nnc(C(F)F)o5)cc4Cl)nn3)cc2s1 [Compound 37-A]		100.00	88.1	69.2	38.4	12.1	3.7	1.3	1.24

Reference: US20260049078A1, “DIFLUORO- AND TRIFLUORO-ACETYL HYDRAZIDES AS SELECTIVE HDAC6 INHIBITORS” (ITALFARMACO S.P.A., priority 2022, published 2026)
